For 17 molecules, Ki and EC50 results are on record in US9050346B2, “Bromodomain inhibitors” (AbbVie Inc., priority 2013, dated 2015).

The target of one assay is T1, BRD4 (BDI_K57-E168) (Homo sapiens, UniProt O60885).
T1 construct: BD1: amino acids K57-E168; made in house
Nature of the assay: TR-FRET bromodomain binding assay, BRD4 first bromodomain. Conditions: His-tagged BD1, 100 nM Alexa647 probe; Ki calculated from IC50; dilution protocol A-G. The procedure: (§1) A time-resolved fluorescence resonance energy transfer (TR-FRET) assay was used to determine the affinities of compounds of the Examples listed in Table 1 for each bromodomain of BRD4. His-tagged first (BD1: amino acids K57-E168) and second (BD2: amino acids E352-E168) bromodomains of BRD4 were expressed and purified. An Alexa647-labeled BET-inhibitor was used as the fluorescent probe in the assay.
(§2) Compound dilution series were prepared in DMSO via an approximately 3-fold serial dilution from one of the following: • Assay method A: 2.5 mM-800 nM • Assay method B: 2.5 mM-797 nM • Assay method C: 1250 μM-21 nM • Assay method D: 500 μM-8.5 nM • Assay method E: 0.47 mM to 7.8 nM • Assay method F: 250 μM-4.2 nM • Assay method G: 0.047 mM to 0.78 nM or 5-fold serial dilution from Assay Method A or Assay Method B.
(§3) For Assay methods A, C, D, and F: Compounds were then diluted 6:100 in assay buffer (20 mM Sodium Phosphate, pH 6.0, 50 mM NaCl, 1 mM Ethylenediaminetetraacetic acid, 0.01% Triton X-100, 1 mM DL-Dithiothreitol) to yield 3× working solutions. Six microliters (μL) of the working solution was then transferred to white, low-volume assay plates (Costar #3673). A 1.5× assay mixture containing His-tagged bromodomain, Europium-conjugated anti-His antibody (Invitrogen PV5596) and the Alexa-647-conjugated probe molecule was also prepared. Twelve μL of this solution were added to the assay plate to reach a final volume of 18 μL.
(§4) For Assay methods B, E, and G: Compound dilutions were added directly into white, low-volume assay plates (Perkin Elmer Proxiplate 384 Plus#6008280) using a Labcyte Echo in conjunction with Labcyte Access and Thermo Multidrop CombinL robotics. Compounds were then suspended in eight microliters (μL) of assay buffer (20 mM Sodium Phosphate, pH 6.0, 50 mM NaCl, 1 mM Ethylenediaminetetraacetic acid disodium salt dihydrate, 0.01% Triton X-100, 1 mM DL-Dithiothreitol) containing His-tagged bromodomain, Europium-conjugated anti-His antibody (Invitrogen PV5596) and Alexa-647-conjugated probe.
(§5) The final concentration of 1× assay mixture for assay methods A, B, C, D, E, F, and G contains 2% DMSO, 8 nM His-tagged bromodomain, 1 nM Europium-conjugated anti-His-tag antibody and 100 nM or 30 nM probe (for BDI or BDII, respectively) and compound concentration in the range of: 50 μM-16 nM for method A, 49.02 μM-15.63 nM for method B, 25 μM-423 pM for method C, 10 μM-169 pM for method D, 9.19 μM-150 pM for method E, 5 μM-85 pM for method F, and 0.92 μM-15 pM for method G.
(§6) After a one-hour equilibration at room temperature, TR-FRET ratios were determined using an Envision multilabel plate reader (Ex 340, Em 495/520).
(§7) TR-FRET data were normalized to the means of 24 no-compound controls (“high”) and 8 controls containing 1 μM un-labeled probe (“low”). Percent inhibition was plotted as a function of compound concentration and the data were fit with the 4 parameter logistic equation to obtain IC50s Inhibition constants (Ki) were calculated from the IC50s, probe Kd and probe concentration. Typical Z′ values were between 0.65 and 0.75. The minimum significant ratio was determined to evaluate assay reproducibility (Eastwood et al., (2006) J Biomol Screen, 11: 253-261). The MSR was determined to be 2.03 for BDI and 1.93 for BDII, and a moving MSR (last six run MSR overtime) for both BDI and BDII was typically <3.

The next assay addresses T2, BRD4 (BDII_E352-M457) (Homo sapiens, UniProt O60885).
T2 construct: made in house
Nature of the assay: TR-FRET bromodomain binding assay, BRD4 second bromodomain. On the procedure: as §1, §2, §3, §4, §5, §6, §7
On the technique in general: In TR-FRET formats the signal depends on donor and acceptor labels being close together.

Assay [1] deals with breast cancer cell line MX-1. Nature of the assay: MX-1 cell line proliferation assay (3-day, Cell Titer Glo). Type of assay: cell-based. Conditions: Homo sapiens, MX1, MX-1 cells, 72 h, top concentration 3 μM, read-out: Cellular proliferation: EC50. On the procedure:
The impact of compounds of the Examples on cancer cell proliferation was determined using the breast cancer cell line MX-1 (ATCC) in a 3-day proliferation assay and the data are reported in Table 1. MX-1 cells were maintained in RPMI 1640 medium (Sigma) supplemented with 10% FBS at 37 C.° and an atmosphere of 5% CO2. For compound testing, MX-1 cells were plated in 96-well black bottom plates at a density of 5000 cells/well in 90 μL of culture media and incubated at 37° overnight to allow cell adhesion and spreading. Compound dilution series were prepared in DMSO via a 3-fold serial dilution from 3 mM to 0.1 μM. The DMSO dilution series were then diluted 1:100 in phosphate buffered saline, and 10 μL of the resulted solution were added to the appropriate wells of the MX-1 cell plate. The final compound concentrations in the wells were 3, 1, 0.3, 0.1, 0.03, 0.01, 0.003, 0.001, 0.0003 and 0.0001 μM.
Luminescence readings from the Cell Titer Glo assay were normalized to the DMSO treated cells and analyzed using the GraphPad Prism software with sigmoidal curve fitting to obtain EC50s. The minimum significant ratio (MSR) was determined to evaluate assay reproducibility (Eastwood et al., (2006) J Biomol Screen, 11: 253-261).
A general note: Cellular ATP, detected with luciferase, serves as a proxy for viable cell number.

Consider `Cc1[nH]c(-c2ccccc2Oc2ccccc2)c2cc(C(=O)NCC3CCOC3)[nH]c(=O)c12` (stereo not drawn) [Example 36, 3-methyl-4-oxo-1-(2-phenoxyphenyl)-N-(tetrahydrofuran-3-ylmethyl)-4,5-dihydro-2H-pyrrolo[3,4-c]pyridine-6-carboxamide], for which the Ki (as a rule, the equilibrium dissociation constant of an inhibitor or competing ligand from its target) at BRD4 (BDI_K57-E168) is 8.83 nM; on BRD4 (BDII_E352-M457) it was 20.9 nM. In assay [1], the EC50 amounted to 188 nM.

On to `CCOC(=O)c1cc2c(-c3cc(F)ccc3OCC3CC3)[nH]c(C)c2c(=O)[nH]1` [Example 69, ethyl 1-[2-(cyclopropylmethoxy)-5-fluorophenyl]-3-methyl-4-oxo-4,5-dihydro-2H-pyrrolo[3,4-c]pyridine-6-carboxylate], for which the figures for the Ki at BRD4 (BDI_K57-E168) and at BRD4 (BDII_E352-M457) were 52.2 nM and 416 nM, respectively. In addition, the EC50 in assay [1] was over 3000 nM.

For `CCS(=O)(=O)Nc1ccc(Oc2ccc(F)cc2F)c(-c2[nH]c(C)c3c(=O)[nH]ncc23)c1` [Example 79, N-[4-(2,4-difluorophenoxy)-3-(7-methyl-1-oxo-2,6-dihydro-1H-pyrrolo[3,4-d]pyridazin-5-yl)phenyl]ethanesulfonamide], the Ki on BRD4 (BDI_K57-E168) was 1.78 nM; at BRD4 (BDII_E352-M457) it was 5.91 nM. In assay [1], the EC50 was 88.6 nM.

With `Cc1[nH]c(-c2ccccc2Oc2ccccc2)c2cc(C(=O)NC3CCOC3)[nH]c(=O)c12` (stereo not drawn) [Example 37, 3-methyl-4-oxo-1-(2-phenoxyphenyl)-N-(tetrahydrofuran-3-yl)-4,5-dihydro-2H-pyrrolo[3,4-c]pyridine-6-carboxamide], the inhibition constant Ki on BRD4 (BDI_K57-E168) was 10.1 nM; on BRD4 (BDII_E352-M457), 13.9 nM. Moreover, the EC50 in assay [1] was 161 nM.

In the case of `Cc1[nH]c(-c2ccccc2Oc2ccccc2)c2cc(-c3nc(-c4ccccn4)no3)[nH]c(=O)c12` [Example 67, 3-methyl-1-(2-phenoxyphenyl)-6-(3-(pyridin-2-yl)-1,2,4-oxadiazol-5-yl)-2H-pyrrolo[3,4-c]pyridin-4(5H)-one], the Ki on BRD4 (BDI_K57-E168) was 9.45 nM; on BRD4 (BDII_E352-M457) it was 78 nM. In assay [1], the EC50 is 80.5 nM.

Regarding `Cc1[nH]c(-c2ccccc2Oc2ccccc2)c2cc(-c3nc(Cn4cncn4)no3)[nH]c(=O)c12` [Example 64, 6-(3-((1H-1,2,4-triazol-1-yl)methyl)-1,2,4-oxadiazol-5-yl)-3-methyl-1-(2-phenoxyphenyl)-2H-pyrrolo[3,4-c]pyridin-4(5H)-one], the Ki on BRD4 (BDI_K57-E168) is 2.28 nM; at BRD4 (BDII_E352-M457), 7.11 nM. Moreover, the EC50 in assay [1] is 29.2 nM.

As to `Cc1[nH]c(-c2ccccc2Oc2ccccc2)c2cc(C(=O)NC(C)(C)C#N)[nH]c(=O)c12` [Example 52, N-(2-cyanopropan-2-yl)-3-methyl-4-oxo-1-(2-phenoxyphenyl)-4,5-dihydro-2H-pyrrolo[3,4-c]pyridine-6-carboxamide], the inhibition constant (Ki) is 36.9 nM on BRD4 (BDI_K57-E168) and 97.5 nM on BRD4 (BDII_E352-M457). Further, the EC50 in assay [1] is 763 nM.

Consider `Cc1[nH]c(-c2ccccc2Oc2ccccc2)c2cc(C(=O)NC3CN(C)C3)[nH]c(=O)c12` [Example 49, 3-methyl-N-(1-methylazetidin-3-yl)-4-oxo-1-(2-phenoxyphenyl)-4,5-dihydro-2H-pyrrolo[3,4-c]pyridine-6-carboxamide], for which the figures for the inhibition constant Ki at BRD4 (BDI_K57-E168) and at BRD4 (BDII_E352-M457) were 3.43 nM and 70.2 nM, respectively. Besides, in assay [1], the EC50 was found to be 138 nM.

In the case of `CCOC(=O)c1cc2c(-c3ccccc3Oc3ccc(F)cc3F)[nH]c(C)c2c(=O)[nH]1` [Example 21, ethyl 1-[2-(2,4-difluorophenoxy)phenyl]-3-methyl-4-oxo-4,5-dihydro-2H-pyrrolo[3,4-c]pyridine-6-carboxylate], the Ki was 24.8 nM on BRD4 (BDI_K57-E168) and 285 nM at BRD4 (BDII_E352-M457). Besides, the EC50 in assay [1] came out at 104 nM.

As for `Cc1[nH]c(-c2ccccc2Oc2ccccc2)c2nc(-c3ccco3)[nH]c(=O)c12` [Example 88, 2-(furan-2-yl)-5-methyl-7-(2-phenoxyphenyl)-3,6-dihydro-4H-pyrrolo[3,4-d]pyrimidin-4-one], the inhibitory constant (Ki) was 380 nM at BRD4 (BDI_K57-E168) and 1620 nM at BRD4 (BDII_E352-M457). Besides, in assay [1], the EC50 stood at 761 nM.

For the molecule `Cc1[nH]c(-c2cc(NS(C)(=O)=O)ccc2Oc2ccc(F)cc2F)c2cc(C(N)=O)[nH]c(=O)c12` [Example 19, 1-(2-(2,4-difluorophenoxy)-5-(methylsulfonamido)phenyl)-3-methyl-4-oxo-4,5-dihydro-2H-pyrrolo[3,4-c]pyridine-6-carboxamide], the inhibitory constant (Ki) on BRD4 (BDI_K57-E168) was 1.66 nM; at BRD4 (BDII_E352-M457), 6.08 nM. Also, in assay [1], the EC50 amounted to 270 nM.

For `Cc1[nH]c(-c2ccccc2Oc2ccccc2)c2cc(CO)[nH]c(=O)c12` [Example 18, 6-(hydroxymethyl)-3-methyl-1-(2-phenoxyphenyl)-2H-pyrrolo[3,4-c]pyridin-4(5H) one], the Ki at BRD4 (BDI_K57-E168) is 15.1 nM; at BRD4 (BDII_E352-M457), 31.6 nM. Further, in assay [1], the EC50 came out at 90.1 nM.

In the case of `Cc1[nH]c(-c2cc(F)ccc2OCC2CC2)c2cc(-c3nc(-c4cnccn4)no3)[nH]c(=O)c12` [Example 71, 1-(2-(cyclopropylmethoxy)-5-fluorophenyl)-3-methyl-6-(3-(pyrazin-2-yl)-1,2,4-oxadiazol-5-yl)-2H-pyrrolo[3,4-c]pyridin-4(5H)-one], the Ki at BRD4 (BDI_K57-E168) was 38.5 nM; on BRD4 (BDII_E352-M457), 659 nM. In addition, the EC50 in assay [1] is 204 nM.

Regarding `Cc1[nH]c(-c2ccccc2Oc2ccc(F)cc2F)c2cc(C(N)=O)[nH]c(=O)c12` [Example 23, 1-[2-(2,4-difluorophenoxy)phenyl]-3-methyl-4-oxo-4,5-dihydro-2H-pyrrolo[3,4-c]pyridine-6-carboxamide], the Ki at BRD4 (BDI_K57-E168) is 6.25 nM; at BRD4 (BDII_E352-M457), 45.1 nM. Further, the EC50 in assay [1] was 60.8 nM.

On to `CCS(=O)(=O)c1ccc(NCC2CC2)c(-c2[nH]c(C)c3c(=O)[nH]ncc23)c1` [Example 84, 5-{2-[(cyclopropylmethyl)amino]-5-(ethylsulfonyl)phenyl}-7-methyl-2,6-dihydro-1H-pyrrolo[3,4-d]pyridazin-1-one], for which the Ki at BRD4 (BDI_K57-E168) is 15.6 nM; on BRD4 (BDII_E352-M457), 112 nM. The EC50 in assay [1] worked out at 288 nM.

On to `Cc1nc2c(-c3ccccc3Oc3ccccc3)[nH]c(C)c2c(=O)[nH]1` [Example 89, 2,5-dimethyl-7-(2-phenoxyphenyl)-3,6-dihydro-4H-pyrrolo[3,4-d]pyrimidin-4-one], for which the Ki was 212 nM at BRD4 (BDI_K57-E168) and 497 nM on BRD4 (BDII_E352-M457). Moreover, in assay [1], the EC50 amounted to 963 nM.

In the case of `Cc1[nH]c(-c2ccccc2Oc2ccccc2)c2cc(C(=O)NC3CCOCC3)[nH]c(=O)c12` [Example 38, 3-methyl-4-oxo-1-(2-phenoxyphenyl)-N-(tetrahydro-2H-pyran-4-yl)-4,5-dihydro-2H-pyrrolo[3,4-c]pyridine-6-carboxamide], the Ki at BRD4 (BDI_K57-E168) was 16.6 nM; at BRD4 (BDII_E352-M457), 29 nM. Besides, the EC50 in assay [1] worked out at 300 nM.
